Where two headings read alike, the source gives them in different places.
How the values were obtained:
[1] = cited from earlier work
Protocol: The difference in detectable time in the urine can be explained by the low level of internal exposure (amatoxins in the blood). […] The daily amounts of peptide toxins excreted in urine in beagles without biliary drainage(mg). Time after α-Amanitin β-Amanitin Phallacidin ingestion 20 mg/kg 60 mg/kg 20 mg/kg 60 mg/kg 20 mg/kg 60 mg/kg group group group group group group 0-1d 0.0379 0.0593 0.0156 0.0251 0.0035 0.0088 (97.9%) (92.8%) (99.9%) (94.7%) (94.2%) (76%) 1-2d 0.0388 0.0618 0.01567 0.0255 0.0037 0.0110 (99.995%) (97.5%) (100%) (96.2%) (100%) (93%) 2-3d 0.0002 0.0626 0 0.0260 0 0.0115 (100%) (99.4%) (100%) (98.2%) (100%) (97.3%) 3-4d 0 0.063 ...

[2] = Peptide toxins in the urine of beagles with biliary drainage; assay type: in vivo, beagle dogs; conditions: for Total (accumulated) amount excreted in urine / percentage of total urine excretion, Total: 0–4 days
Protocol: The study was approved by National Institute of Occupational Health and Poison Control review board for animal experiments. Twenty-four male beagles (age, 8–10 months; weight, 10 ± 1 kg) were obtained from Beijing Institute of Xieerxin Biology Resource (Beijing, China). They were randomly divided into four groups of six animals each: control, biliary drainage, and 20 and 60 mg/kg with biliary drainage groups. The biliary drainage operation was conducted in all groups barring the control group. The dogs were dressed in homemade underwear, coats, and Elizabeth circles for a week to ensure pre-experimental acclimatization (Figure S8a–c). After determining the baseline values for biochemical indicators, the dogs were fasted for 24 h but received water ad libitum. They were anesthetized by intravenous administration of pentobarbital sodium (3%, 1 mL/kg) during the surgery. A temperature of 38–39 °C was maintained with a warming mat. After skin preservation and sterilization, the abdominal cavity was opened through the central abdomen. The abdomen was explored and blunt dissection of the common bile duct was performed (Figure S8d). The common bile duct and its branches were ligated from the intestinal side. A 7.0-Fr drainage catheter (COOK, Bloomington, IN, USA) was percutaneously inserted into the gallbladder, and a medical drainage bag was connected to the drainage catheter coming out of the abdominal cavity. Each opened layer, including the peritoneum, abdominal wall muscle, and skin, was closed with suture. The operative incision was protected with sterile gauze and a bandage, and the dogs were dressed in homemade underwear, coats, and Elizabeth circles. The drainage bag was placed in the pocket of the coat (Figure S8e). After the anesthetic wore off, the dogs were placed in cages, and food and water were provided ad libitum. The operative incision was sterilized with iodophor twice a day until stitches were removed six days after surgery. The drainage bag was replaced every day. On the eighth day after surgery, the 20 and 60 mg/kg with biliary drainage groups were orally administered a lyophilized powder of Amanita exitialis in starch capsules. In control and bile drainage group, the beagle dogs were fed with empty capsules. Immediately after dosing, the animals were placed in their cages, and food and water were provided ad libitum. Dogs were sacrificed with an overdose of sodium pentobarbital at the end of the experiment. All procedures were performed according to the ethical standards of the National Institutes of Health Guide for Animal Welfare and approved by the Institutional Animal Care and Use Committee (EAWE-2017-005).
Peptide toxins in blood and urine samples were analyzed as described previously. Bile samples from Days 0–1, Days 1–2, Days 2–3, and Days 3–4 were collected and stored in medical drainage bags and the bile volume was recorded. Plasma and urine samples were stored at 2–8 °C until analysis for peptide toxins.
UPLC and MS/MS parameters were as described in our previous study. The limit of detection and limit of quantitation of each toxin in the bile were 0.03 mg/kg and 0.5 mg/kg, respectively.

[3] = 20 mg/kg with biliary drainage group
[4] = 60 mg/kg with biliary drainage group
[5] = 1–2 days, 20 mg/kg with biliary drainage group
[6] = 1–2 days, 60 mg/kg with biliary drainage group
[7] = 2–3 days, 20 mg/kg with biliary drainage group
[8] = 2–3 days, 60 mg/kg with biliary drainage group
[9] = 3-4d, 20 mg/kg with biliary drainage group
[10] = 3-4d, 60 mg/kg with biliary drainage group
[11] = 3–4 days, 20 mg/kg with biliary drainage group
[12] = 3–4 days, 60 mg/kg with biliary drainage group

With CC[C@H](C)[C@@H]1NC(=O)CNC(=O)[C@@H]2Cc3c([nH]c4cc(O)ccc34)[S@+]([O-])C[C@H](NC(=O)CNC1=O)C(=O)N[C@@H](CC(=O)O)C(=O)N1C[C@H](O)C[C@H]1C(=O)N[C@@H]([C@@H](C)[C@@H](O)CO)C(=O)N2 [β-amanitin] as the compound, how does the “daily amount excreted in urine, without biliary drainage” value ([1]; 0-1d, 20 mg/kg group) read?
The value was 0.0156 mg.

What about the “percentage in parentheses, urine, without biliary drainage” value ([1]; 0-1d, 20 mg/kg group) of the same compound?
Its value is 99.9%.

And the “daily amount excreted in urine, without biliary drainage” value ([1]; 0-1d, 60 mg/kg group)?
The value was 0.0251 mg.

And the “percentage in parentheses, urine, without biliary drainage” value ([1]; 0-1d, 60 mg/kg group)?
The value was 94.7%.

And the “Accumulative amount excreted in urine, without biliary drainage” value ([1]; 20 mg/kg group)?
The value was 0.0157 mg.

What about the “percentage in parentheses, Accumulative amount, urine, without biliary drainage” value ([1]; 20 mg/kg group) of the same compound?
The value was 100%.

What about the “Accumulative amount excreted in urine, without biliary drainage” value ([1]; 20 mg/kg group, listed as β-Amanitin) of the same compound?
The value was 0.01567 mg.

And the “percentage in parentheses, Accumulative amount, urine, without biliary drainage” value ([1]; 60 mg/kg group)?
The value was 100%.

What about the “percentage in parentheses, urine, without biliary drainage” value ([1]; 1-2d, 20 mg/kg group) of the same compound?
Its value is 100%.

And the “daily amount excreted in urine, without biliary drainage” value ([1]; 1-2d, 60 mg/kg group)?
Its value is 0.0255 mg.

And the “percentage in parentheses, urine, without biliary drainage” value ([1]; 1-2d, 60 mg/kg group)?
Its value is 96.2%.

And the “daily amount excreted in urine, without biliary drainage” value ([1]; 2-3d, 20 mg/kg group)?
Its value is 0 mg.

What about the “percentage in parentheses, urine, without biliary drainage” value ([1]; 2-3d, 20 mg/kg group) of the same compound?
Its value is 100%.

And the “daily amount excreted in urine, without biliary drainage” value ([1]; 2-3d, 60 mg/kg group)?
Its value is 0.0260 mg.

And the “percentage in parentheses, urine, without biliary drainage” value ([1]; 2-3d, 60 mg/kg group)?
The value was 98.2%.

What about the “daily amount excreted in urine, without biliary drainage” value ([1]; 3-4d, 20 mg/kg group) of the same compound?
Its value is 0 mg.

What about the “percentage in parentheses, urine, without biliary drainage” value ([1]; 3-4d, 20 mg/kg group) of the same compound?
The value was 100%.

What about the “daily amount excreted in urine, without biliary drainage” value ([1]; 3-4d, 60 mg/kg group) of the same compound?
The value was 0.0264 mg.

What about the “percentage in parentheses, urine, without biliary drainage” value ([1]; 3-4d, 60 mg/kg group) of the same compound?
The value was 100%.

What about the “detection rate of peptide toxins in urine” value (from here on “detection rate”) ([2]; 0-1 d, 20 mg/kg with biliary drainage group) of the same compound?
The value was 100%.

What about the “detection rate” value ([2]; 0-1 d, 60 mg/kg with biliary drainage group) of the same compound?
The value was 100%.

And the “daily amount excreted in urine” value ([2]; 0–1 days, 20 mg/kg with biliary drainage group)?
The value was 0.0050 mg.

And the “percentage of total urine excretion excreted daily” value ([2]; 0–1 days, 20 mg/kg with biliary drainage group, 20 mg/kg)?
Its value is “more than 90%”.

And the “percentage of total urine excretion excreted daily” value ([2]; 0–1 days, 20 mg/kg with biliary drainage group, listed as β-Amanitin, 20 mg/kg)?
Its value is 93.9%.

What about the “daily amount excreted in urine” value ([2]; 0–1 days, 60 mg/kg with biliary drainage group) of the same compound?
Its value is 0.0065 mg.

And the “percentage of total urine excretion excreted daily” value ([2]; 0–1 days, 60 mg/kg with biliary drainage group, 60 mg/kg)?
Its value is “more than 90%”.

And the “percentage of total urine excretion excreted daily” value ([2]; 0–1 days, 60 mg/kg with biliary drainage group, listed as β-Amanitin, 60 mg/kg)?
The value was 91.4%.

And the “Total (accumulated) amount excreted in urine” value [2, 3]?
The value was 0.0055 mg.

What about the “percentage of total urine excretion, Total” value [2, 3] of the same compound?
Its value is 100%.

And the “Total (accumulated) amount excreted in urine” value [2, 4]?
The value was 0.0068 mg.

What about the “percentage of total urine excretion, Total” value [2, 4] of the same compound?
Its value is 100%.

What about the “time within which toxin was detected in urine” value [2, 3] of the same compound?
The value was “two”.

What about the “time within which toxin was detected in urine” value [2, 4] of the same compound?
Its value is “two”.

What about the “detection rate” value ([2]; 1-2 d, 20 mg/kg with biliary drainage group) of the same compound?
The value was 50%.

And the “detection rate” value ([2]; 1-2 d, 60 mg/kg with biliary drainage group)?
Its value is 83%.

And the “daily amount excreted in urine” value [2, 5]?
The value was 0.0005 mg.

What about the “percentage of total urine excretion excreted daily” value [2, 5] of the same compound?
Its value is 6.1%.

And the “daily amount excreted in urine” value [2, 6]?
The value was 0.0003 mg.

And the “percentage of total urine excretion excreted daily” value [2, 6]?
Its value is 8.6%.

And the “detection rate” value ([2]; 2-3 d, 20 mg/kg with biliary drainage group)?
Its value is 0%.

What about the “toxin content in urine” value ([2]; 2-3d, 20 mg/kg with biliary drainage group, mean ± SD) of the same compound?
Its value is 0 µg/L.

What about the “detection rate” value ([2]; 2-3 d, 60 mg/kg with biliary drainage group) of the same compound?
The value was 0%.

What about the “toxin content in urine” value ([2]; 2-3d, 60 mg/kg with biliary drainage group, mean ± SD) of the same compound?
The value was 0 µg/L.

What about the “daily amount excreted in urine” value [2, 7] of the same compound?
The value was 0(0%) mg.

What about the “percentage of total urine excretion excreted daily” value [2, 7] of the same compound?
Its value is 0(0%).

What about the “daily amount excreted in urine” value [2, 8] of the same compound?
Its value is 0(0%) mg.

And the “percentage of total urine excretion excreted daily” value [2, 8]?
The value was 0(0%).

And the “detection rate” value [2, 9]?
The value was 0%.

What about the “toxin content in urine” value [2, 9] of the same compound?
Its value is 0 µg/L.

What about the “detection rate” value [2, 10] of the same compound?
The value was 0%.

And the “toxin content in urine” value [2, 10]?
Its value is 0 µg/L.

What about the “daily amount excreted in urine” value [2, 11] of the same compound?
The value was 0(0%) mg.

What about the “percentage of total urine excretion excreted daily” value [2, 11] of the same compound?
The value was 0(0%).

And the “daily amount excreted in urine” value [2, 12]?
The value was 0(0%) mg.

What about the “percentage of total urine excretion excreted daily” value [2, 12] of the same compound?
Its value is 0(0%).

What about the “share of total urine excretion in the 0–2-day urine” value ([2]; beagles with biliary drainage, both dose groups) of the same compound?
The value was “more than 95%”.

Reference: PMC6024615, “Effect of Biliary Drainage on the Toxicity and Toxicokinetics of Amanita exitialis in Beagles” (Toxins, 2018)
